Experimental data as given in BindingDB's records for doi:10.7270/Q2PN941W (The Scripps Research Institute Molecular Screening Center, 2007).
Structures can show the parent of a compound that is named as a salt.

Each compound was assayed against Sphingosine 1-phosphate receptor 3 (Homo sapiens, UniProt Q99500) (assay: nonspecific agonism in S1P3 NFAT-BLA cells – counter-screen for 5HT1E agonist project, dose response (AID 730)).
Sequence of Sphingosine 1-phosphate receptor 3 (Q99500 whole entry): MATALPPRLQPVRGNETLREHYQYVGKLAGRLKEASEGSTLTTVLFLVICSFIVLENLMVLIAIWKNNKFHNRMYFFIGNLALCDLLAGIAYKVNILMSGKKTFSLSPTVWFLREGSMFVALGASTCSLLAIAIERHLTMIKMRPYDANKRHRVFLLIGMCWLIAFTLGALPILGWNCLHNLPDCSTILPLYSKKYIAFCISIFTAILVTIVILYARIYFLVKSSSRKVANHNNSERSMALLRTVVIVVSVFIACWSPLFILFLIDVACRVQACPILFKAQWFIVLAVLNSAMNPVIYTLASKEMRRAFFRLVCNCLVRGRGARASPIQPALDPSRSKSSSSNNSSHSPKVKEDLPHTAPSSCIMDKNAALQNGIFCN

SMILES | EC50 [µM]
CC[C@@H](CO)NC(=O)[C@@H]1C=C2c3cccc4c3c(cn4C)C[C@H]2N(C)C1 [METHYSERGIDE MALEATE] | > 40
CSc1nc2ccc(NC(=O)C3CCCO3)cc2s1 (stereo not given) [N-[2-(methylthio)-1,3-benzothiazol-6-yl]-2-oxolanecarboxamide] | > 40
Cc1c(CN2CCN(c3cccc(C(F)(F)F)c3)CC2)c(=O)n(-c2ccccc2)n1C | > 40
CN1CC=C(c2c[nH]c3ccccc23)CC1 [MLS000120058] | > 40
CN1CCN2c3ccccc3Cc3ccccc3C2C1 (stereo not given) [MIANSERIN HYDROCHLORIDE] | > 40
CCN(CC)c1nc(N2CCOCC2)c(C#N)c2c1CN(C)CC2 [1-(diethylamino)-7-methyl-3-morpholin-4-yl-6,8-dihydro-5H-2,7-naphthyridine-4-carbonitrile] | > 40
CCCCN(C)CCCNC(=O)Cn1c(=O)sc2ccccc21 [N-{3-[butyl(methyl)amino]propyl}-2-(2-oxo-1,3-benzothiazol-3(2H)-yl)acetamide] | > 40
Cc1[nH]c2c(Cl)cccc2c1CCN | > 40
CC1CN(c2nnnn2-c2ccccc2)CC(C)O1 (stereo not given) [SMR000109556] | > 40
COc1ccc2[nH]cc(CCN(C)C)c2c1 [3-(2-DIMETHYLAMINOETHYL)-5-METHOXYINDOLE] | > 40
CCOC(=O)c1c(C)nc(-c2ccccc2)nc1NC(=O)CC [ethyl 4-methyl-2-phenyl-6-(propionylamino)pyrimidine-5-carboxylate] | > 40
Cc1cccc(N2CCN(C(=O)Cc3c(C(=O)O)[nH]c4ccc(Cl)cc34)CC2)c1C [5-chloranyl-3-[2-[4-(2,3-dimethylphenyl)piperazin-1-yl]-2-oxidanylidene-ethyl]-1H-indole-2-carboxylic acid] | > 40
CCOC(=O)C1C(C)=NC(=O)NC1c1ccc(OCC(=O)Nc2ccccc2)c(OC)c1 (stereo not given) [SMR000093032] | > 40
COC(=O)CC(=O)Cc1nc(N)nc(Nc2ccc(C)c(C)c2)n1 [4-[4-amino-6-(3,4-dimethylanilino)-1,3,5-triazin-2-yl]-3-oxobutanoic acid methyl ester] | > 40
Cc1noc(C)c1COc1ccc(C(=O)OC(C)C(=O)Nc2ccc(N3CCOCC3)cc2)cc1 (stereo not given) [[1-[(4-morpholin-4-ylphenyl)amino]-1-oxidanylidene-propan-2-yl] 4-[(3,5-dimethyl-1,2-oxazol-4-yl)methoxy]benzoate] | > 40
Cn1c(-c2ccccc2)cnc1SCc1nc(O)c2ccccc2n1 [MLS000077265] | > 40
CCOC(=O)C1CCN(C(=O)Cc2c(C(=O)O)n(C)c3ccccc23)CC1 [3-{2-[4-(ethoxycarbonyl)piperidin-1-yl]-2-oxoethyl}-1-methyl-1H-indole-2-carboxylic acid] | > 40
CCN1CC=C(c2c[nH]c3ccccc23)CC1 [MLS000093713] | > 40
NCCc1c[nH]c2ccc(F)cc12 [MLS000047815] | > 40
CCCCc1ccc2[nH]cc(CCN)c2c1 | > 40
CC(CCc1ccccc1)NC(=O)CSc1nc(N)cc(N)n1 (stereo not given) [MLS000254508] | > 40
O=C(NCc1ccccc1)NC1(C(=O)N2CCCC2)CCCCC1 [1-Benzyl-3-[1-(pyrrolidine-1-carbonyl)-cyclohexyl]-urea] | > 40
COc1ccc(N(CC(=O)NC2CCCC2)C(=O)Cn2nnc(-c3ccc(C)cc3)n2)cc1OC [N-[2-(cyclopentylamino)-2-oxoethyl]-N-(3,4-dimethoxyphenyl)-2-[5-(4-methylphenyl)tetrazol-2-yl]acetamide] | > 40
COc1cc(CN2CCN(c3cccc(C)c3C)CC2)cc(OC)c1O [4-[[4-(2,3-dimethylphenyl)piperazin-1-yl]methyl]-2,6-dimethoxy-phenol] | > 40
CCc1nn(C(C)C(=O)NCCN2CCN(c3cccc(C)c3C)CC2)c(=O)c2cc3occc3n12 (stereo not given) [SMR000029605] | > 40

SMILES | EC50 [µM]
Cc1cc(C(C)(C)C)c(O)c(C)c1CC1=NCCN1 [SMR000059324] | > 40
Cc1cccc(NC(=O)C2CCCN(C(=O)Nc3ccccc3)C2)c1C (stereo not given) [SMR000006943] | > 40
CCOC(=O)C1CCN(C(c2cccnc2)c2c(NC(=O)c3ccco3)sc(C)c2C)CC1 (stereo not given) [SMR000019649] | > 40
CC(=O)Nc1ccc(S(=O)(=O)N(C)c2ccc(O)cc2)cc1 [MLS000081936] | > 40
CCCCN(CC)Cc1ccc(CNC(=O)Nc2ccc(OC)cc2OC)o1 [1-[[5-[[butyl(ethyl)amino]methyl]furan-2-yl]methyl]-3-(2,4-dimethoxyphenyl)urea] | > 40
Cc1cc(C(C)(C)C)cc(C)c1CC1=NCCN1 [SMR000058526] | > 40
c1ccc2sc(C3CCCNC3)nc2c1 (stereo not given) [SMR000067014] | > 40
O=C(Nc1cccc(-c2cn3ccsc3n2)c1)c1ccccc1 [N-[3-(6-imidazo[2,1-b]thiazolyl)phenyl]benzamide] | > 40
c1ccc(N2CCN(Cc3cn4cccnc4n3)CC2)cc1 | > 40
CNCCc1c[nH]c2ccccc12 [N-OMEGA-METHYLTRYPTAMINE] | > 40
Cc1[nH]c2ccccc2c1C1=CCNCC1 [MLS000045807] | > 40
CN1CCN(C(N=O)c2nonc2N)CC1 (stereo not given) | > 40
C[N+]1=C2CCCCCN2C(O)(c2ccccc2)C1 (stereo not given) [MLS000048587] | > 40
CCOC(=O)c1oc2ccccc2c1NC(=O)c1cc(OC)cc(OC)c1 [ethyl 3-[(3,5-dimethoxybenzoyl)amino]-1-benzofuran-2-carboxylate] | > 40
C1=C(c2c[nH]c3ccccc23)CCNC1 | > 40
O=C(COC(=O)CCC1CCCC1)Nc1ccc(Cl)cn1 [[2-[(5-chloropyridin-2-yl)amino]-2-oxoethyl] 3-cyclopentylpropanoate] | > 40
CCc1ccc(NC(=O)Cn2c(SC)nc3ccccc32)cc1 [N-(4-ethylphenyl)-2-[2-(methylthio)-1-benzimidazolyl]acetamide] | > 40
CCOC(=O)c1cc2ccc(OC(=O)c3ccco3)cc2oc1=O [ethyl 7-(2-furoyloxy)-2-oxo-2H-chromene-3-carboxylate] | 10.5
CN(C)CCOC(=O)c1cn(Cc2ccccc2)c2ccccc12 [2-(dimethylamino)ethyl 1-(phenylmethyl)indole-3-carboxylate;hydrochloride] | > 40
Cc1[nH]c2c(C(F)(F)F)cccc2c1CCN [2-[2-methyl-7-(trifluoromethyl)-1H-indol-3-yl]ethanamine;hydrochloride] | > 40
COc1ccc(CN2CCN(c3ccccc3F)CC2)c(OC)c1 | > 40
CN(C)CCCn1c(NC(=O)C2CCCCC2)nc2ccccc21 | > 40
O=S(=O)(c1cccc(Cl)c1)N1CCCC1 [MLS000063405] | > 40
Cn1cc(C(Cc2ccccc2)N=O)c2ccccc21 (stereo not given) [1-(1-methyl-3-indolyl)-2-phenylethanone oxime] | > 40
O=C(O)C1CCCCC1C(=O)NCCc1c[nH]c2ccccc12 (stereo not given) [2-[2-(1H-indol-3-yl)ethylcarbamoyl]cyclohexane-1-carboxylic acid] | > 40
